From patent publication US20100035831A1, “ANTI-WRINKLE AGENT AND ADAM INHIBITOR” (SHISEIDO COMPANY, LTD., priority 2007, published 2010)

Experiments:
[1] = system: ADAM; test: Inhibition of PMA-induced TNF-α release from U937 cells as index of ADAM inhibition (ELISA); format: cell-based, human; conditions: tested substance 30 μg/mL, 30 min pretreatment, 10 nM PMA for 6 hours
Protocol: For ADAM inhibiting effect, the TNF-α which is cut out to be released from the membrane of the U937 cell derived from the human lymphoma through the action of the ADAM was used as an index and the inhibiting effect on the TNF-α release was assessed. A new ADAM inhibitor was explored by screening different compounds according to the present method.
The U937 cells derived from the human lymphoma were seeded to the 48-well plate adjusting the number of the cells to 1×10^5 cells/0.25 ml and cultured at 37° C. overnight. The medium which contained 30 μg/ml of alkyl glucoside was added and incubated at 37° C. for 30 min. to be pretreated. 10 nM PMA (phorbol ester:12-O-tetradecanoylphorbol-acetate; Sigma P8139) was then added and cultured at 37° C. for 6 hours. After completion of the treatment, the supernatant of the culture was collected, centrifuged and the cell-free supernatant was cryopreserved at −20° C. The assay of the released hTNF-α was performed using the hTNF-α Duo-Set ELISA kit from R & D Ltd. Each supernatant of the culture was diluted 5 folds with the medium, then 100 μl each was added to the 96-well plate and measured according to the protocol of R & D Ltd. The absorbance at 450-570 nm of each well was measured by the measurement kit and concentrations of the samples were obtained from the standard curve. The inhibition rates were calculated according to the following equation wherein A0 is the absorbance of 0% inhibiting control (the medium containing only PMA), A100 is the absorbance of 100% inhibiting control (only the medium) and AS is the absorbance of the sample.
The inhibition rate (%)=(A0−AS)/(A0−A100)×100

[2] = system: barrier-destructed wrinkle mouse model; test: Wrinkle score by visual judgement in the tape-stripping barrier-destructed wrinkle mouse model; format: in vivo, hairless mice (HR-1)
Protocol: Then, the wrinkle-ameliorating effects of dodecyl β-D-glucoside (GC12), tetradecyl β-D-glucoside (GC14), and hexadecyl β-D-glucoside (GC16) amongst the new ADAM-inhibiting compounds were examined using a barrier-destructed wrinkle mouse model.
(§1) The tape stripping was performed on the left back of the hairless mice (HR-1, 6 week old male, Hosino experimental animals) 3 times a week for 4 consecutive weeks so that the trans epithelial water loss (measured using a measuring device of water loss MEECO; Meeco Ltd, USA) was 4-8 mg/cm^2/h. Every time immediately after procedures of tape stripping, 100 μl each of the solutions of dodecyl β-D-glucoside, tetradecyl β-D-glucoside, and hexadecyl β-D-glucoside dissolved in the 50% ethanol aqueous solution so that they were 1% were applied on the left back of the mice, and as the negative control, a 50% ethanol aqueous solution (vehicle) were similarly applied. Number n was set as 6 to 7 for each group.
States of the wrinkle development after 4 weeks were scored by visual judgement. The assessment criteria of the wrinkle development state was set as “no wrinkle; 0”, “thin wrinkle; 1”, “clear wrinkle; 2”, “deep wrinkle; 3”, and the states were scored to the 0.5.
(§2) Using the similar method, the wrinkle-inhibiting effect of octadecyl β-D-glucoside (GC18) was also examined.

[3] = system: barrier-destructed wrinkle mouse model; test: Relative transepidermal water loss (TEWL) in the barrier-destructed wrinkle mouse model; format: in vivo, hairless mice (HR-1); conditions: for Relative TEWL (%), left (treated) side based on right (untreated) side: 1% in 50% ethanol, 4 weeks after starting, vehicle group 186% (FIG. 3)
Protocol: as §1
Further, the trans epithelial water loss (TEWL) at the backs of the mice before starting the test and at 4 weeks after starting was also examined. The TEWL values at the left backs on which dodecyl β-D-glucoside, tetradecyl β-D-glucoside, and hexadecyl β-D-glucoside or 50% ethanol aqueous solution (vehicle) were applied after tape stripping procedure as well as the values at the right backs on which nothing was applied were measured by the Vapometer (Technologies Ltd, Kuopio, Finland) two times, respectively. The ratio of the TEWL value for the left side based on the TEWL value of the right side for each individual (the relative TEWL (%)) was obtained and the average value for each group was calculated.
as §2

[4] = system: fine wrinkles around the human eyes; test: Visual judgement of fine wrinkles under the human eye, half face double blind test; format: in vivo; conditions: 0.44% in 30% ethanol
Protocol: (§3) An aqueous solution of 0.44% dodecyl β-D-glucoside/30% ethanol was successively applied to 16 adult male humans in the 30-40th's (the average age of 42.2) for two months. The dosage was set as 30 μl per application. The solution of 0.44% dodecyl β-D-glucoside/30% ethanol was applied to the lateral angle of and under one eye and 30% ethanol aqueous solution as the vehicle was applied to those of the other eye two times a day.
(§4) To examine the state of the skin around the eyes before the application and after the application, it was acclimated in a steady temperature and humidity room (23.5° C., 45% humidity) after washing the face and then photo taking of the appearance around the eyes (Nikon digital single lens reflex camera D-100) and the water content measurement of the horny layer (Corneometer, Courage+Khazaka electronic GmbH, Germany) were performed before starting the test and after starting the successive application for two months.
Then, the visual appreciation judgement was performed by three judging persons.

[5] = Water content of the horny (corneal) layer around the human eyes (Corneometer); format: in vivo; conditions: 0.44% in 30% ethanol, two months; vehicle group reduced to 95% of the value before start (FIG. 6)
Protocol: as §3, §4
The rate of the water content value of the corneal layer of the eye, when the value is 100, after successive application for two months based on the water content value of the horny layer of each subject before starting the test (relative water content of the horny layer (%)) was obtained to calculate the average value for each group.

[6] = 1% in 50% ethanol, 100 μl on left back after each tape stripping, 3 times a week, after 4 weeks, vehicle group 1.24 (FIG. 2)
[7] = 30 μl two times a day for two months, 16 adult males, versus vehicle-applied side

With `CCCCCCCCCCCCCCCCO[C@@H]1O[C@H](CO)[C@@H](O)[C@H](O)[C@H]1O` [Hexadecyl β-D-glucoside] the “Inhibition rate (%) of TNF-α release” value [1] was 76%, the “Average wrinkle score by visual judgement (0 no wrinkle to 3 deep wrinkle)” value [2, 6] was 0.89 and the “Relative TEWL (%), left (treated) side based on right (untreated) side” value (from here on “Relative TEWL (%), left”) [3] was 164%.
In the case of `OC[C@H]1O[C@@H](OCc2ccccc2)[C@H](O)[C@@H](O)[C@@H]1O` [Glucoside compound (B), reference compound], the “Inhibition rate (%) of TNF-α release” value [1] is reported as 3.4%.
With `CCCCCCCCCCCCO[C@H]1O[C@H](CO)[C@@H](O)[C@H](O)[C@H]1O` [Dodecyl α-D-glucoside] the “Inhibition rate (%) of TNF-α release” value [1] was 91%.
In the case of `OC[C@H]1O[C@@H](Oc2c[nH]c3ccccc23)[C@H](O)[C@@H](O)[C@@H]1O` [Glucoside compound (D), reference compound], the “Inhibition rate (%) of TNF-α release” value [1] is reported as −0.5%.
With `OC[C@H]1O[C@@H](Oc2ccccc2)[C@H](O)[C@@H](O)[C@@H]1O` [Glucoside compound (A), reference compound] the “Inhibition rate (%) of TNF-α release” value [1] was 9.5%.
In the case of `CCCCCCCCCCCCO[C@@H]1O[C@H](CO)[C@@H](O)[C@H](O)[C@H]1O` [Dodecyl β-D-glucoside], the “Inhibition rate (%) of TNF-α release” value [1] is reported as 88%, the “Average wrinkle score by visual judgement (0 no wrinkle to 3 deep wrinkle)” value [2, 6] is reported as 0.58 and the “Relative TEWL (%), left” value [3] is reported as 141%. For the same compound, the “Number of subjects Ameliorated” value [4, 7] was 10, the “Number of subjects Deteriorated” value [4, 7] was 2 and the “Number of subjects Unchanged” value [4, 7] was 4. For the same compound, the “Effect on fine wrinkles under the eye (in words)” value ([4]; two months, human) was “significantly ameliorates the fine wrinkles under the eye” and the “Relative water content of the horny layer (in words)” value [5] was “reduction of the water content of the corneal layer was controlled”.
For `CCCCCCCCCCCCCCO[C@@H]1O[C@H](CO)[C@@H](O)[C@H](O)[C@H]1O` [Tetradecyl β-D-glucoside], the “Inhibition rate (%) of TNF-α release” value [1] was 109%, the “Average wrinkle score by visual judgement (0 no wrinkle to 3 deep wrinkle)” value [2, 6] was 0.63 and the “Relative TEWL (%), left” value [3] was 130%.
In the case of `CCCCCCCCCCCCCCCCCCO[C@@H]1O[C@H](CO)[C@@H](O)[C@H](O)[C@H]1O` [Octadecyl β-D-glucoside], the “Inhibition rate (%) of TNF-α release” value [1] is reported as 62%, the “Average wrinkle score by visual judgement (0 no wrinkle to 3 deep wrinkle)” value ([2]; similar method, vehicle group 1.55 (FIG. 4)) is reported as 0.54 and the “Relative TEWL (%)” value ([3]; similar method, vehicle group 208% (FIG. 5)) is reported as 124%.
In the case of `CCCCCCCCCCCO[C@@H]1O[C@H](CO)[C@@H](O)[C@H](O)[C@H]1O` [Undecyl β-D-glucoside], the “Inhibition rate (%) of TNF-α release” value [1] is reported as 98%.
For `OC[C@H]1O[C@@H](OCCc2ccccc2)[C@H](O)[C@@H](O)[C@@H]1O` [Glucoside compound (E), reference compound], the “Inhibition rate (%) of TNF-α release” value [1] was −51.83%.
For `CCCCCCCCCCO[C@@H]1O[C@H](CO)[C@@H](O)[C@H](O)[C@H]1O` [Decyl β-D-glucoside], the “Inhibition rate (%) of TNF-α release” value [1] was 56%.
With `OC[C@H]1O[C@@H](Oc2cccc3cccnc23)[C@H](O)[C@@H](O)[C@@H]1O` [Glucoside compound (C), reference compound] the “Inhibition rate (%) of TNF-α release” value [1] was 4.8%.
